Columns and labels:
Assay type in all cases: biochemical
human factor Xa = target: T1, human factor Xa (Homo sapiens, UniProt P00742); assay: Xa Assay; conditions: read-out: IC50 or % Inhibition Factor Xa (30 µM): % inhibition
T1 construct: purchased Enzyme Research Laboratories, South Bend IN
Description: (§1) 0.3 nM human factor Xa and 0.15 mM N-a-Benzyloxycarbonyl-D-arginyl-L-glycyl-L-arginne-nitroaniline-dihydrochloride (S-2765) are added to a 96-well assay plate containing either inhibitor or buffer (50 mM Tris-HCl, pH 8.0, 100 mM NaCl, 0.1% BSA). The reaction, in a final volume of 100 ul is measured immediately at 405 nm to determine background absorbance. The plate is incubated at room temperature for 60 min, at which time the rate of hydrolysis of the substrate is measured by monitoring the reaction at 405 nm for the release of p-nitroaniline. Percent inhibition of Xa activity is calculated from OD405nm value from the experimental and control sample.
(§2) Recombinant soluble TF, consisting of amino acids 1-219 of the mature protein sequence was expressed in E. coli and purified using a Mono Q Sepharose FPLC. Recombinant human […] was purchased from American Diagnostica, Greenwich Cr and chromogenic substrate N-Methylsulfonyl-D-phe-gly-arg-pnitroaniline was prepared by American Peptide Company, Inc., Sunnyvale, Calif. Factor Xa was obtained from Enzyme Research Laboratories, South Bend IN, thrombin from Calbiochem, La Jolla, Calif., and trypsin and L-BAPNA from Sigma, St. Louis Mo. The chromogenic substrates S-2765 and S-2238 were purchased from Chromogenix, Sweden.

[1] = target: T2, TF-VIIa (recombinant soluble tissue factor and recombinant human factor VIIa) (Homo sapiens, UniProt P08709); assay: TF-VIIa Assay; conditions: chromogenic substrate, 60 min at room temperature, OD 405 nm; read-out: IC50 or % Inhibition TF-VIIa (30 µM): IC50
T2 construct: purchased American Diagnostica, Greenwich; host or cells: soluble TF made in house in E. coli
T2 sequence (P08709 213-466 limits assumed): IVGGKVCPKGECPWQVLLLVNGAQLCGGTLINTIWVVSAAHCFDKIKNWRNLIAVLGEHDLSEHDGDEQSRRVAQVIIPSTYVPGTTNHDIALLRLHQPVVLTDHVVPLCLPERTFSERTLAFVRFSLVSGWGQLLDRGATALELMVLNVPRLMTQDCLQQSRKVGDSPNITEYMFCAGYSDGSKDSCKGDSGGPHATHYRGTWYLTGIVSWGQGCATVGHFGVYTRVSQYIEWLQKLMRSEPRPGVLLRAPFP
T2 sequence (P08709 61-212 partner limits assumed): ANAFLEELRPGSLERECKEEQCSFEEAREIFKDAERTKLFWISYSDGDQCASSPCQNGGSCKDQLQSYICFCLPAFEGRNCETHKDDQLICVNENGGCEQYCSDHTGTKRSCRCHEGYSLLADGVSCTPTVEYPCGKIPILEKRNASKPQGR
T2 sequence (P13726 33-251 partner limits assumed): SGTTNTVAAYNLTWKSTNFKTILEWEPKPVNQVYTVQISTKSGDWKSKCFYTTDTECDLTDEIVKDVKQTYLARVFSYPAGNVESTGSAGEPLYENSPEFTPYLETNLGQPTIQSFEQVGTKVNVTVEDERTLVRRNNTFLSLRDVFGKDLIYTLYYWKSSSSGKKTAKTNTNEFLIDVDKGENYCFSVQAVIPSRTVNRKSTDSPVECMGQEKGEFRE
Description: as §1, with “In this assay 100” for “0.3”, “nM recombinant soluble tissue factor and 2 nM recombinant” for “nM”, “VIIa” for “Xa and 0.15 mM N-a-Benzyloxycarbonyl-D-arginyl-L-glycyl-L-arginne-nitroaniline-dihydrochloride (S-2765)”, “containing 0.4 mM of the substrate, N-Methylsulfonyl-D-phe-gly-arg-p-nitroaniline and” for “containing”, “(5 mM CaCl2, 50” for “(50”, “TF-VIIa” for “Xa”
as §2

[2] = target: T3, trypsin, type IX from porcine pancreas (Sus scrofa, UniProt P00761); assay: Trypsin Assay; conditions: chromogenic substrate L-BAPNA, 60 min at room temperature, OD 405 nm; read-out: IC50 or % Inhibition Trpysin II (30 µM): IC50
T3 construct: purchased Sigma, St. Louis Mo; host or cells: porcine pancreas
T3 sequence (P00761 9-231): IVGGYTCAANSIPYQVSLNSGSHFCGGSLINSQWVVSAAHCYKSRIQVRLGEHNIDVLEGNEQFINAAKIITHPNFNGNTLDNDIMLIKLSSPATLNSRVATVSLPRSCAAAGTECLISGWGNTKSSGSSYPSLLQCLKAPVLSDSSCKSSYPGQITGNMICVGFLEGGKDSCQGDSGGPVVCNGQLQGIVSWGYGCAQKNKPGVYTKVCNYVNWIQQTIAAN
Description: 5 ug/ml trypsin, type IX from porcine pancreas and 0.375 mM N-α-Benzoyl-L-arginine-p-nitroanilide (LBAPNA) are added to a 96-well assay plate containing either inhibitor or buffer (50 mM Tris-HCl, pH 8.0, 100 mM NaCl, 0.1% BSA). The reactions, in a final volume of 100 ul are measured immediately at 405 nm to determine background absorbance. The plate is incubated at room temperature for 60 min, at which time the rate of hydrolysis of the substrate is measured by monitoring the reaction at 405 nm for the release of p-nitroaniline. Percent inhibition of trypsin activity is calculated from OD405nm value from the experimental and control sample.
as §2

human thrombin = human thrombin (Homo sapiens, UniProt P00734); assay: Thrombin Assay
Description: as §1, with “0.28” for “0.3”, “thrombin” for “factor Xa”, “0.06” for “0.15”, “H-D-Phenylalanyl-L-pipecolyl-L, arginine-nitroaniline, dihydrochloride” for “N-a-Benzyloxycarbonyl-D-arginyl-L-glycyl-L-arginne-nitroaniline-dihydrochloride (S-2765)”, “pnitroaniline.” for “p-nitroaniline.”, “thrombin” for “Xa”
as §2

T1 sequence (P00742 235-488 limits assumed): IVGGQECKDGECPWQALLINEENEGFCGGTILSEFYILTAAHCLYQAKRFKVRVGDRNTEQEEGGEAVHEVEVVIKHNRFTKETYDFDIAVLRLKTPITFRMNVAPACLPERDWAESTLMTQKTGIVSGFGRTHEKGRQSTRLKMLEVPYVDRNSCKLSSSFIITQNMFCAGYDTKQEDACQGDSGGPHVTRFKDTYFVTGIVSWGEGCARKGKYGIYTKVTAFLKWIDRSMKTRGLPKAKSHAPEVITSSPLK
T1 sequence (P00742 41-179 partner limits assumed): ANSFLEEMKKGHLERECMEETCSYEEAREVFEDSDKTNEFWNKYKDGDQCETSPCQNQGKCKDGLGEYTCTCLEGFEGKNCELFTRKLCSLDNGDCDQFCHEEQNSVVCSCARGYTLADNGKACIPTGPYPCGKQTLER

inhibition at 100 µM (human factor Xa)	IC50 [1]	IC50 [2]	IC50 (human thrombin; chromogenic substrate, 60 min at room temperature, OD 405 nm, read-out: IC50 or % Inhibition Thrombin (30 µM): IC50)	inhibition at 100 µM (human thrombin; at 100 μM, read-out: IC50 or % Inhibition Thrombin (30 µM): % inhibition)	SMILES
32%	280 nM	33 nM	100000 nM		CC(C)Nc1cn(C)c(-c2cccc(N)c2)c(CC(=O)NCc2ccc(C(=N)N)cc2)c1=O [Example 1]
34%	560 nM	151 nM		45%	CCCn1cc(NC(C)C)c(=O)c(CC(=O)NCc2ccc(C(=N)N)cc2)c1-c1cccc(N)c1 [Example 2]

Source: US20030236257A1, “Polycyclic aryl and heteroaryl substituted 4-pyridones useful for selective inhibition of the cogulation cascade” (priority 2003, published 2003)
